“And” between values parts separate entries of the source, which are not always exact repeats. Equal values may be shown once.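 Each compound was tested at five concentrations against cells in 96-well plates for 48 hours. Here, GI50 denotes the concentration required for 50% inhibition of growth. At the TGI there is no net growth.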
What was measured:
Test in all cases: NCI tumour cell line growth inhibition, 48 h
[1] = tested on: SF-539 CNS
[2] = tested on: OVCAR-8 ovarian
[3] = tested on: UACC-62 melanoma
[4] = tested on: OVCAR-5 ovarian
[5] = tested on: OVCAR-4 ovarian
[6] = tested on: COLO 205 colon
[7] = tested on: SF-268 CNS
[8] = tested on: IGROV1 ovarian
[9] = tested on: U251 CNS
[10] = tested on: SNB-75 CNS

CN[C@]12CC3(C=CC(=O)C=C3)O[C@@]1(Cc1ccc(OC)cc1)N(C)C(=O)N2
GI50 [1]: 1.9 µM | TGI [1]: 3.97 µM | GI50 [2]: 2.53 µM | TGI [2]: 21.3 µM | GI50 [3]: 1.46 µM | TGI [3]: 3.34 µM | GI50 [4]: 2.21 µM | TGI [4]: 5.59 µM | GI50 [5]: 3.89 µM | TGI [5]: 19.1 µM | GI50 [6]: 2.53 µM | TGI [6]: 6.66 µM | GI50 [7]: 2.85 µM | TGI [7]: 9.82 µM | GI50 [8]: 1.78 µM | TGI [8]: 4.1 µM | GI50 [9]: 1.85 µM | TGI [9]: 3.99 µM | GI50 [10]: 10.4 µM | TGI [10]: 23.3 µM

Cc1cc(C)c(O)c(Cc2cccc(Cc3cc(C)cc(C)c3O)c2O)c1
TGI [1]: > 100 µM | TGI [2]: > 100 µM | TGI [3]: > 100 µM | TGI [4]: > 100 µM | TGI [5]: > 100 µM | TGI [6]: > 100 µM | TGI [7]: > 100 µM | TGI [8]: > 100 µM | TGI [9]: > 100 µM | TGI [10]: > 100 µM

COc1cc(/C=C2\[C@H]3c4c(c(OC)c(C)c(OC)c4OC)C[C@@H](C(=O)N2Cc2ccccc2)N3C(=O)OC(C)C)c(OC)c(C)c1OC
TGI [1]: > 100 µM | TGI [2]: > 100 µM | TGI [3]: > 100 µM | TGI [4]: > 100 µM | TGI [5]: > 100 µM | TGI [6]: > 100 µM | TGI [7]: > 100 µM | TGI [8]: > 100 µM | TGI [9]: > 100 µM | TGI [10]: > 100 µM

O=C1/C(=C\C(Cl)=C/c2ccc([N+](=O)[O-])cc2)SC(=S)N1CCc1ccc(O)cc1
GI50 [1]: 0.328 µM | TGI [1]: 1.12 µM | GI50 [2]: 0.414 µM | TGI [2]: 4.2 µM | GI50 [3]: 0.566 µM | TGI [3]: 1.86 µM | GI50 [4]: 0.447 µM | TGI [4]: 1.53 µM | GI50 [5]: 0.496 µM | TGI [5]: 1.8 µM | GI50 [6]: 0.882 µM | TGI [6]: 3.64 µM | GI50 [7]: 0.831 µM | TGI [7]: 2.77 µM | GI50 [8]: 0.512 µM | TGI [8]: 1.68 µM | GI50 [9]: 0.261 µM | TGI [9]: 0.85 µM | GI50 [10]: 1.08 µM | TGI [10]: 2.35 µM

COc1cc2nc(Sc3c([N+](=O)[O-])ncn3C)[nH]c2cc1OC
TGI [1]: 47.5 µM | TGI [2]: 58 µM | TGI [3]: 75.8 µM | TGI [4]: > 100 µM | TGI [5]: > 100 µM | TGI [6]: 30.2 µM | TGI [7]: 69.9 µM | TGI [8]: > 100 µM | TGI [9]: > 100 µM | TGI [10]: > 100 µM

COc1cc2ccc3c4c(OC)cc(OC)c(OC)c4c(=O)n(C)c3c2cc1OC
GI50 [1]: 2.74 µM | TGI [1]: 10.5 µM and > 47.4 µM | GI50 [2]: 0.451 µM | GI50 [3]: > 16.7 µM | TGI [3]: > 47.3 µM | TGI [4]: 23.1 µM | GI50 [5]: 2.67 µM | TGI [5]: 8.32 µM and > 45.8 µM | GI50 [6]: 1.3 µM | TGI [6]: 4.09 µM and 9.95 µM | GI50 [7]: 1.13 µM | TGI [7]: 10.7 µM and > 21.2 µM | TGI [8]: 16.7 µM and > 45.6 µM | GI50 [9]: 0.299 µM | TGI [9]: 3.71 µM and 10.6 µM | GI50 [10]: 3.25 µM | TGI [10]: 14.5 µM and > 42.5 µM

N.N.N.N.N.N.[I-].[Os]
GI50 [1]: > 100 µM | TGI [1]: > 100 µM | GI50 [2]: > 100 µM | TGI [2]: > 100 µM | GI50 [3]: > 100 µM | TGI [3]: > 100 µM | GI50 [4]: > 100 µM | TGI [4]: > 100 µM | GI50 [5]: > 100 µM | TGI [5]: > 100 µM | GI50 [6]: > 100 µM | TGI [6]: > 100 µM | GI50 [7]: > 100 µM | TGI [7]: > 100 µM | GI50 [8]: > 100 µM | TGI [8]: > 100 µM | GI50 [9]: > 100 µM | TGI [9]: > 100 µM | GI50 [10]: > 100 µM | TGI [10]: > 100 µM

COc1cc(/C=C2\CN(C)C/C(=C\c3cc(OC)c(OC)c(OC)c3)C2=O)cc(OC)c1OC
GI50 [1]: 0.379 µM | TGI [1]: 1.33 µM | GI50 [2]: 0.312 µM | TGI [2]: 75.7 µM | GI50 [3]: 0.186 µM | TGI [3]: 0.383 µM | GI50 [4]: 0.357 µM | TGI [4]: 1.17 µM | GI50 [5]: 0.342 µM | TGI [5]: 1.95 µM | GI50 [6]: 0.23 µM | TGI [6]: 0.461 µM | GI50 [7]: 0.346 µM | TGI [7]: 1.6 µM | GI50 [8]: 0.413 µM | TGI [8]: 1.73 µM | GI50 [9]: 0.257 µM | TGI [9]: 0.746 µM | GI50 [10]: 0.667 µM | TGI [10]: 2.48 µM

COc1ccc(-c2cc(=O)c3c(OC)c(OC)c(OC)c(OC)c3o2)cc1OC
TGI [1]: > 100 µM | TGI [2]: > 100 µM | TGI [3]: 72.4 µM | TGI [4]: > 100 µM | TGI [5]: > 100 µM | TGI [6]: > 100 µM | TGI [7]: > 100 µM | TGI [8]: > 100 µM | TGI [9]: > 100 µM | TGI [10]: > 100 µM

CCOC(=O)c1ccc(N(CCOS(C)(=O)=O)CCOS(C)(=O)=O)cc1C
GI50 [1]: 23.9 µM | TGI [1]: > 100 µM | GI50 [2]: 44 µM | TGI [2]: > 100 µM | GI50 [3]: 23.8 µM | TGI [3]: 95.4 µM | GI50 [4]: 38.1 µM | TGI [4]: 94 µM | GI50 [5]: 20.9 µM | TGI [5]: 46.8 µM | GI50 [6]: 38.4 µM | TGI [6]: > 100 µM | GI50 [7]: 22 µM | TGI [7]: 82.7 µM | GI50 [8]: 91.4 µM | TGI [8]: > 100 µM | GI50 [9]: 26.4 µM | TGI [9]: > 100 µM | GI50 [10]: 34.5 µM | TGI [10]: 87.1 µM

COc1cc(/C=C/C(=O)c2ccc(Nc3ncnc4ccccc34)cc2)cc(OC)c1
GI50 [1]: 4.98 µM | TGI [1]: 18 µM | GI50 [2]: 3.68 µM | TGI [2]: 17.1 µM | GI50 [3]: 7.7 µM | TGI [3]: 27.7 µM | GI50 [4]: 20.3 µM | TGI [4]: 57.3 µM | GI50 [5]: 4.28 µM | TGI [5]: 25.2 µM | GI50 [6]: 9.59 µM | TGI [6]: 39.8 µM | GI50 [7]: 3.06 µM | TGI [7]: 12.2 µM | GI50 [8]: 13.5 µM | TGI [8]: 60.2 µM | GI50 [9]: 2.24 µM | TGI [9]: 6.75 µM | GI50 [10]: 24.1 µM | TGI [10]: > 100 µM

CCOC(=O)/C(=C/c1ccc([N+](=O)[O-])cc1)C(=O)c1ccccc1
GI50 [1]: 1.82 µM | TGI [1]: 3.58 µM | GI50 [2]: 3.73 µM | TGI [2]: 12 µM | GI50 [3]: 1.93 µM | TGI [3]: 4.28 µM | GI50 [4]: 2.55 µM | TGI [4]: 6.93 µM | GI50 [5]: 3.44 µM | TGI [5]: 12.9 µM | GI50 [6]: 1.95 µM | TGI [6]: 3.89 µM | GI50 [7]: 2.83 µM | TGI [7]: 10.7 µM | GI50 [8]: 2.53 µM | TGI [8]: 7.4 µM | GI50 [9]: 2.13 µM | TGI [9]: 4.48 µM | GI50 [10]: 1.72 µM | TGI [10]: 4.22 µM

Cc1n[nH]c(=S)n1/N=C/c1ccc(F)c(Oc2ccccc2)c1
GI50 [1]: 27.7 µM | TGI [1]: 65.1 µM | GI50 [2]: 35.7 µM | TGI [2]: > 100 µM | GI50 [3]: 52.4 µM | TGI [3]: > 100 µM | GI50 [4]: > 100 µM | TGI [4]: > 100 µM | GI50 [5]: 44.9 µM | TGI [5]: > 100 µM | GI50 [6]: 68.1 µM | TGI [6]: > 100 µM | GI50 [7]: 28.4 µM | TGI [7]: > 100 µM | GI50 [8]: 62.3 µM | TGI [8]: > 100 µM | GI50 [9]: 50.3 µM | TGI [9]: > 100 µM | GI50 [10]: 45.1 µM | TGI [10]: > 100 µM

C=C1C(=O)O[C@H]2[C@H]1CC/C(COC(=O)CCCCCCCCC(=O)OC/C1=C/CC[C@@]3(C)O[C@H]3[C@H]3OC(=O)C(=C)[C@@H]3CC1)=C\CC[C@@]1(C)O[C@@H]21
GI50 [1]: 1.9 µM | TGI [1]: 3.95 µM | GI50 [2]: 3.07 µM | TGI [2]: 8.1 µM | GI50 [3]: 1.99 µM | TGI [3]: 4.25 µM | GI50 [4]: 2.26 µM | TGI [4]: 5.56 µM | GI50 [5]: 2.46 µM | TGI [5]: 7.55 µM | GI50 [6]: 1.89 µM | TGI [6]: 4.15 µM | GI50 [7]: 1.86 µM | TGI [7]: 3.84 µM | GI50 [8]: 1.97 µM | TGI [8]: 4.24 µM | GI50 [9]: 1.96 µM | TGI [9]: 3.82 µM | GI50 [10]: 4.8 µM | TGI [10]: 19.6 µM

COc1ccc(-c2cnc3ccnn3c2-c2cc(OC)c(OC)c(OC)c2)cc1
GI50 [1]: 1.99 µM | TGI [1]: 6.11 µM | GI50 [2]: 7.25 µM | TGI [2]: > 100 µM | GI50 [3]: 2.15 µM | TGI [3]: > 100 µM | GI50 [4]: 4.42 µM | TGI [4]: > 100 µM | GI50 [5]: 9.69 µM | TGI [5]: > 100 µM | GI50 [6]: 2.1 µM | TGI [6]: 5.51 µM | GI50 [7]: 5.86 µM | TGI [7]: > 100 µM | GI50 [8]: 5.25 µM | TGI [8]: > 100 µM | GI50 [9]: 4.64 µM | TGI [9]: > 100 µM | GI50 [10]: 2.2 µM | TGI [10]: 62.7 µM
